According to patent publication US8383626B2, “Nitric oxide donors for inducing neurogenesis” (Henry Ford Health System, priority 1999, dated 2013):
Values joined by “and” are separate entries in the source; they are usually repeats but may differ in a detail not shown here. Identical values can stand only once.

Key:
Assay type in all cases: in vivo, rat
[1] = system: newly formed cells (BrdU) in the subventricular zone and the dentate gyrus; test: BrdU-positive newly formed cells in rats after embolic MCA occlusion treated with DETANONO
Description: A pharmacological method to promote neurogenesis in brain was developed. Male Wistar rats were subjected to middle cerebral artery (MCA) occlusion by means of intraarterial placement of a clot at the origin of the right MCA. Animals were administered (iv/ip) nitric oxide donor compounds (DETANONO) after induction of stroke, at 24 and 48 hours (Group 1), or at 24 hours followed by daily injection (ip) of NO donor compound (Group 2). BrdU, a thymidine analog which identifies the formation of new cells, was injected (ip) daily over a period of 14 days from the onset of ischemia. Identification of cell type was determined by labeling immunoreactivity of specific cell proteins. Thus, neurons were identified by expression of NeuN, MAP2 and the astrocytes formed by GFAP. Measurements of neurogenesis were performed within specific regions of brain, the subventricular zone and the dentate gyrus.

[2] = system: newly formed cells (BrdU) in the subventricular zone and the dentate gyrus; test: BrdU-positive newly formed cells in non-ischemic rats after single dose of DETANONO
Description: Treatment of non-ischemic brain with DETANONO: Rats not subjected to any surgical procedures were treated with DETANONO. The drug was administered as a single dose (iv 0.12 mg). BrdU was injected daily for 14 days after treatment. One population (Group 3) of rats was sacrificed on the last day of BrdU injection, Another population (Group 4) was sacrificed at four weeks after the last BrdU injection. Animals which were not administered DETA-NONO were given BrdU with the identical protocol as that for the DETA-NONO treated rats (Group 5).

[3] = system: focal embolic cerebral ischemic brain; test: Ischemic lesion volume after embolic MCA occlusion; conditions: ischemic rats
Description: Male Wistar rats (n=30) weighing 300-350 g were subjected to middle cerebral artery (MCA) occlusion. The MCA was occluded by placement of an embolus at the origin of the MCA. Briefly, a single intact fibrin rich 24 hour old homologous clot (about 1 μl) was placed at the origin of the MCA via a fifteen mm length of modified PE-50 catheter. The experimental protocol consisted of four groups. In Group I (control group), rats were subjected to MCA occlusion and received four consecutive intravenous bolus doses of saline (0.52 ml each, every fifteen minutes) at 24 hours after ischemia. Group II (DETNO/NO precondition) rats received four consecutive intravenous bolus doses of DETANONO (0.1 mg/kg each, every fifteen minutes, and total dose 0.4 mg/kg) at 24 hours before embolization. Group III (DETANONO two set group), animals received consecutive intravenous bolus doses of DETANONO (0.1 mg/kg each, every fifteen minutes and total dose 0.4 mg/kg) at 24 and 48 hours after occlusion. Group IV (DETANONO seven set group), animals received four consecutive intravenous bolus doses of DETANONO (0.1 mg/kg each, every fifteen minutes and total dose 0.4 mg/kg) at 24 hours after embolization. Subsequently, rats were intraperitoneally injected with DETA/NO at 0.4 mg/kg every day for six consecutive days.

## NCCN(CCN)/[N+]([O-])=N/O [DETANONO, DETANONOate]
[1]; Group 1: treated at 24 and 48 hours after stroke, non-treated 37.3±3.6
  BrdU cells in the granule cell layer: 89.5±12
[1]; Group 2: 24 h after stroke then daily ip, BrdU daily 14 days, untreated 1653±91.4
  numbers of BrdU positive cells, subventricular zone: 2748±326
[1]; Group 2: 24 h after stroke then daily ip, untreated 37.3±3.6
  numbers of BrdU positive cells, dentate gyrus granule cell layer: 135±18.9
[1]; Group 2, untreated 10.1±2.4
  numbers of BrdU positive cells, dentate gyrus hilus: 43.8±10.2
[1]; Group 2, untreated 34.9±2.8
  numbers of BrdU positive cells, dentate gyrus (second pair of values, area not named): 53.7±6.3
[1]; ischemic rats
  newly formed cells within the dentate gyrus that were neurons: > 90%
[1]; rats treated with DETANONO and subjected to strokes, estimated
  newly formed cells within the hippocampus of neuronal phenotype: more than 90%
[2]; Group 3: single dose iv 0.12 mg, sacrificed on last day of BrdU injection, Group 5 controls 1432.6±104.6, 1655.2±102.9, in cells/mm2
  BrdU cells, subventricular zones (two values, sides not given): 2952±102.6 and 2725.3±115.5
[2]; Group 3, Group 5 control 39.9±7.26
  BrdU cells, dentate gyrus (granule cell layer): 73.7±8.11
[2]; Group 4: single dose iv 0.12 mg, sacrificed four weeks after last BrdU injection, controls 214.6±67.9, 233.1±49.2, in cells/mm2
  BrdU cells, subventricular zone (two values, sides not given): 456.5±42.3 and 518.4±67.2
[3]
  ischemic lesion volume: did not exhibit a significant reduction
